The values that follow come from publication PMC2930046 (Archives of biochemistry and biophysics, 2010).

What is called koff is the first-order rate constant of dissociation. The kon is the second-order rate constant of association. The IC50 is the concentration at which inhibition is half-maximal.

One data set concerns Mtb proteasome. The following applies: cited from earlier work.
The target in data set [1] is T1, Mtb20SOG (Mycobacterium tuberculosis, UniProt P9WHT9). The data set is described as follows: Kinetics of inhibition of Mtb20SOG, progress curves of Suc-LLVY-AMC cleavage. The data set is classed as biochemical.
A further data set deals with human 20S β5 (Homo sapiens, UniProt P28074). The data set is classed as biochemical.
For data set [2], the target named is T1, Mtb20SOG. The data set is classed as biochemical. The conditions noted are these: retest of screening hits.
A further data set has as its system proteasome β5. The conditions noted are these: read-out: IC50 for β5; cited from earlier work.
Data set [3] has as its system fibroblasts and glial-derived cells. The conditions noted are these: through inhibition of proteasome activity; cited from earlier work.
The subject of the next data set is cancer cells. The following applies: cited from earlier work.
Another data set addresses mammalian proteasome. The following applies: cited from earlier work.

Where “and” joins values, the source holds several entries; their conditions need not be identical. Identical values can stand only once. Peptide text beside a SMILES is read from it. * marks the point of attachment. AMC = Cc1cc(=O)oc2cc(N*)ccc12; Cbz = O=C(OCc1ccccc1)*

T1 sequence (P9WHT9 58-291): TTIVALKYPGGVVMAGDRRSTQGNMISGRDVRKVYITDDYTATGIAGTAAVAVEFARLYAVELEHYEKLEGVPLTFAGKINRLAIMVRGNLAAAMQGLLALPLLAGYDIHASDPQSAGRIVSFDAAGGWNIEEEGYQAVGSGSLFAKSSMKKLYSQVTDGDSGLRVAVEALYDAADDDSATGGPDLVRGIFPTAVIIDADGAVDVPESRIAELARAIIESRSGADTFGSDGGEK

In the case of `CC(=O)NC(CC(N)=O)C(=O)NC(CCC(N)=O)C(=O)NC(CC(C)C)C(=O)Nc1ccc2c(C)cc(=O)oc2c1` (stereo not drawn) [Ac-NQL-AMC] (Ac-Asn-Gln-Leu-{AMC}; configuration not given here), in the data set with Mtb proteasome, the “hydrolysis by the Mtb proteasome” value is listed as “could not be hydrolyzed”.
Consider `CCCCCCCCC[C@@H](O)CC(=O)N[C@@H](CC(N)=O)C(=O)N[C@@H](CCC(N)=O)C(=O)N[C@H](C=O)CC(C)C` [compound 1, (R)-3-hydroxydodecanoyl-Asn-Gln-Leu-CHO], for which the Ki was 7.4 nM on Mtb20SOG [1] (Ki calculated from koff/kon, koff/kon); 6.8 nM at Mtb20SOG [1] (Ki, Morrison fit of vs/vo vs [1], corrected by (1+[S]/KM), one-step slow binding); 11.1 nM at Mtb20SOG [1] (Kiapp, apparent, Morrison equation 3, uncorrected); 11.6 nM and 11.5 nM on human 20S β5 (Ki, initial EI complex, corrected by equation 4, two-step mechanism). In addition, the koff on Mtb20SOG [1] (read-out: k4 (koff)) was found to be 0.00096 s⁻¹. Further, the kon on Mtb20SOG [1] (read-out: kon^app (slope of the fit, apparent)) turned out to be 79500 M⁻¹ s⁻¹. In addition, the “advantage on binding affinity of EI* over EI (ΔG = −RTlnK)” value on human 20S β5 was 1.5 kcal/mol. Besides, the k5/k6 ratio on human 20S β5 is 11. For the same compound, the “distribution of enzyme into EI*” value on human 20S β5 (from k5/k6 ratio) is 91%. In addition, the “inhibition of Mtb20SOG on retest with re-supplied compound” value at Mtb20SOG [2] is “dose-dependent inhibition”. The IC50 in the data set on proteasome β5 was 9.6 nM. Moreover, the “release of nerve growth factor” value in data set [3] was “induce the release of nerve growth factor”. Moreover, the “cytotoxicity to cancer cells” value in the data set with cancer cells is “cytotoxic to cancer cells”.
On to `CC(C)C[C@@H](C=O)NC(=O)[C@H](CC(C)C)NC(=O)[C@H](CC(C)C)NC(=O)OCc1ccccc1` [Z-Leu-Leu-Leu-Cho] (Cbz-Leu-Leu-Leu-aldehyde), for which the Ki at mammalian proteasome is 4 nM.
